Test results: ChEMBL document CHEMBL1201862, “PubChem BioAssay data set” (2004)
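Exposure lasted 48 hours, with cells grown in 96-well plates and compounds tested at five concentrations. GI50 marks 50% less growth.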 The source made the active and inactive calls. No stated cut-off is given here; in the data, active = GI50 up to about 1.1 µM and inactive = higher.

Columns and labels:
Assay in all cases: NCI tumour cell line growth inhibition, 48 h
OVCAR-4 = tested on: OVCAR-4
UACC-257 = tested on: UACC-257
SR = tested on: SR
SK-MEL-28 = tested on: SK-MEL-28
EKVX = tested on: EKVX
MOLT-4 = tested on: MOLT-4
OVCAR-8 = tested on: OVCAR-8
HCT-116 = tested on: HCT-116
OVCAR-3 = tested on: OVCAR-3
CCRF-CEM = tested on: CCRF-CEM
SF-295 = tested on: SF-295
TK-10 = tested on: TK-10
Hs-578T = tested on: Hs-578T
SW-620 = tested on: SW-620
NCI/ADR-RES = tested on: NCI/ADR-RES
K562 = tested on: K562
LOX IMVI = tested on: LOX IMVI
HT-29 = tested on: HT-29
NCI-H23 = tested on: NCI-H23
SK-MEL-5 = tested on: SK-MEL-5
A498 = tested on: A498
Malme-3M = tested on: Malme-3M
DU-145 = tested on: DU-145
NCI-H460 = tested on: NCI-H460
RPMI-8226 = tested on: RPMI-8226
OVCAR-5 = tested on: OVCAR-5
A549 = tested on: A549
M14 = tested on: M14
ACHN = tested on: ACHN
786-0 = tested on: 786-0
IGROV-1 = tested on: IGROV-1
HOP-92 = tested on: HOP-92
HOP-62 = tested on: HOP-62
NCI-H226 = tested on: NCI-H226
SNB-19 = tested on: SNB-19

Measured: GI50

COc1ccc(C[C@H]2COC(=O)[C@@H]2Cc2ccc(O)cc2)cc1OC
inactive: OVCAR-4 > 100 µM | UACC-257 > 100 µM | SR > 100 µM | SK-MEL-28 > 100 µM | EKVX > 100 µM | MOLT-4 > 100 µM | OVCAR-8 > 100 µM | HCT-116 > 100 µM | OVCAR-3 > 100 µM | CCRF-CEM > 100 µM | SF-295 > 100 µM | TK-10 > 100 µM | Hs-578T > 100 µM | SW-620 > 100 µM | NCI/ADR-RES > 100 µM | K562 > 100 µM | LOX IMVI > 100 µM | HT-29 > 100 µM | NCI-H23 > 100 µM | SK-MEL-5 > 100 µM | A498 > 100 µM | Malme-3M > 100 µM | DU-145 > 100 µM | NCI-H460 > 100 µM | RPMI-8226 > 100 µM | OVCAR-5 > 100 µM | A549 > 10 µM | M14 > 100 µM | ACHN > 100 µM | 786-0 > 100 µM | IGROV-1 > 100 µM | HOP-92 > 100 µM | HOP-62 > 100 µM | NCI-H226 > 100 µM | SNB-19 > 100 µM
